The source of these data is patent US20260028364A1, “CATIONIC CHROMENONES AND THEIR USE IN ONCOLOGY” (FLORATEK PHARMA S.A., priority 2022, published 2026).

Common to all, as to type: cell-based
The subject of test [1] is A2058. As to the kind of experiment: Caspase-Glo 3/7 apoptosis assay, A2058. Particulars: A2058 cells, 10 μM, 24 h. The method, then:
(§1) Apoptosis activity was evaluated using Caspase-Glo 3/7 Assay kit (Promega-G8091) according to the manufacturer's instructions. Cells were grown as above and harvested from exponential phase cultures, counted and plated in 96 black well flat-bottom microtiter plates at a cell density depending on the cell line's growth rate (3,000-10,000 cells/well depending on the cell line's growth rate). Following an overnight incubation, compounds were added to the cell plates at various concentrations (highest at […]) with the DMSO concentration maintained at 0.1% for a 24 h period treatment. 100 μL of Caspase-Glo 3/7 Reagent was added to each well of 96-well plate containing 100 μL culture medium, and after 30 min at room temperature, luminescence was measured with the microplate luminometer (EnVision Perkin Elmer). The induced relative Caspase 3/7 activity of the tested compounds was determined by the following formula: Relative Caspase 3/7 activity (fold increase)=(RLU compound−RLU blank)/(RLU control−RLU blank).

Test [2] has as its system Daudi. As to the kind of experiment: CellTiter-Glo cell viability, Daudi. Particulars: Homo sapiens; Daudi cells, 72 h with compound. The method, then:
(§2) Antitumor activity against a panel of cancer cell lines Antitumor activity of the compounds was assessed by using the CellTiter-Glow® Luminescent Cell Viability assay (Promega #G7572) according to the manufacturer's instructions. The compounds were tested at 5 or 6 concentrations in 1:2 dilution increments (highest concentration 10 µM) in triplicate well conditions.
(§3) Tumor cells were grown at 37° C. in a humidified atmosphere with 5% CO2 in RPMI 1640 or DMEM medium, supplemented with 10% (v/v) fetal calf serum and 50 μg/ml gentamicin for up to 20 passages, and were passaged once or twice weekly. Cells were harvested using TrypLE or PBS buffer containing 1 mM EDTA, and the percentage of viable cells is determined using a cell counter.
(§4) Cells were harvested from exponential phase cultures, counted and plated in 96 well flat-bottom microtiter plates at a cell density depending on the cell line's growth rate (4,000-20,000 cells/well depending on the cell line's growth rate) in RPMI 1640 or DMEM medium supplemented with 10% (v/v) fetal calf serum and 50 μg/ml gentamicin (140 μl/well). Cultures were incubated at 37° C. and 5% CO2 in a humidified atmosphere. […] Viability of cells was quantified by the CellTiter-Glow® Luminescent Cell Viability assay (Promega #G7572). Luminescence was measured with the microplate luminometer (En Vision Perkin Elmer). […]
In general terms: Cellular ATP, detected with luciferase, serves as a proxy for viable cell number.

For test [3], the system named is MOLT-4. As to the kind of experiment: CellTiter-Glo cell viability, MOLT-4. Particulars: Homo sapiens; MOLT-4 cells, 72 h with compound. The method, then:
as §2, §3, §4

Test [4] concerns SK-Mel-5. Briefly: Caspase-Glo 3/7 apoptosis assay, SK-Mel-5. Conditions: SK-Mel-5 cells, 1 μM, 24 h. The method, then: as §1
In test [5] the test system is MIA-PaCa-2. Briefly: CellTiter-Glo cell viability, MIA-PaCa-2. Particulars: Homo sapiens; MIA-PaCa-2 cells, 72 h with compound. The method, then:
as §2, §3
(§5) Cells were harvested from exponential phase cultures, counted and plated in 96 well flat-bottom microtiter plates at a cell density depending on the cell line's growth rate (4,000-20,000 cells/well depending on the cell line's growth rate) in RPMI 1640 or DMEM medium supplemented with 10% (v/v) fetal calf serum and 50 μg/ml gentamicin (140 μl/well). Cultures were incubated at 37° C. and 5% CO2 in a humidified atmosphere. After 24 h, 10 μl of test compounds or control medium are added, and left on the cells for another 72 h. Compounds were serially diluted in DMSO, transferred in cell culture medium, and added to the assay plates. The DMSO concentration was kept constant at <0.2% v/v across the assay plate. Viability of cells was quantified by the CellTiter-Glow® Luminescent Cell Viability assay (Promega #G7572). Luminescence was measured with the microplate luminometer (En Vision Perkin Elmer).
(§6) Sigmoidal concentration-response curves were fitted to the data points (test-versus-control, T/C values) obtained for each tumor model using Graph Pad prism 5.02 software. IC50 values are reported as absolute IC50 values, being the concentration of test compound at the intersection of the concentration-response curves with T/C=50%.

Test [6] relates to Oxidative Stress. As to the kind of experiment: SelectScreen CellSensor pathway inhibition, Oxidative Stress. Conditions: Homo sapiens; ARE-bla HepG2, stimulus tBHQ. The method, then:
(§7) Inhibition of various cellular pathways known to be involved in malignancy was tested using the SelectScreen Cell-based Pathway Profiling GeneBLAzer™ cell signaling pathway specific CellSensor™ cell lines ((Thermo Fisher). The assay is based on a beta-lactamase reporter activity which is modulated and can be measured quantitatively and selectively with the LiveBLAzer™-FRET B/G Loading Substrate. SelectScreen Cell-Based Pathway Profiling Service uses XLfit from IDBS. The dose response curve is curve fit to model number 205 (sigmoidal dose-response model). Custom logic was built by Thermo Fisher for the data analysis tool to address the different compound characteristics that can be observed with functional assays.
Oxidative Stress—ARE-bla HepG2—Inhibitor Screen, Activated by tBHQ
ARE-bla HepG2 cells are thawed and resuspended in Assay Media (DMEM, 10% dialyzed FBS, 25 mM HEPES pH 7.3, 0.1 mM NEAA, 100 U/mL/100 μg/mL Pen/Strep) to a concentration of 375,000 cells/mL. 32 μL of cell suspension is added to each well of a 384-well Poly-D-Lysine assay plate. Cells in Assay Media are incubated for 16-24 hours in the plate at 37° C./5% CO2 in a humidified incubator. […] The plate is read on a fluorescence plate reader.

Test [7] has as its system CHP-134. Briefly: Caspase-Glo 3/7 apoptosis assay, CHP-134. Particulars: CHP-134 cells, 3.16 μM, 24 h. The method, then:
as §1

Test [8] deals with Kelly. As to the kind of experiment: CellTiter-Glo cell viability, Kelly. Conditions: Kelly cells, 72 h with compound. The method, then:
as §2, §3, §5, §6

The subject of test [9] is MAPK/MEK/B-raf. As to the kind of experiment: SelectScreen CellSensor pathway inhibition, MAPK/MEK/B-raf. Conditions: Homo sapiens, A-375; AP1-bla A375, no stimulus (constitutively activated). The method, then: as §7
MAPK/MEK/B-raf—AP1-bla A375—Inhibitor Screen, Constitutively Activated
AP1-bla A375 cells are thawed and resuspended in Assay Media (OPTI-MEM, 0.5% dialyzed FBS, 0.1 mM NEAA, 1 mM Sodium Pyruvate, 100 U/mL/[…] Pen/Strep) to a concentration of 312,500 cells/mL. 4 μL of a 10×serial dilution of Rafi Kinase Inhibitor (control inhibitor starting concentration, 10,000 nM) or compounds are added to appropriate wells of a TC-Treated assay plate. 32 μL of cell suspension (10,000 cells) is added to the wells. 4 μL of Assay Media is added to all wells to bring the final assay volume to 40 μL. […] The plate is read on a fluorescence plate reader.

Turning to `COc1ccc2c(=O)c(-c3ccc(CCCC[P+](c4ccccc4)(c4ccccc4)c4ccccc4)cc3)coc2c1OC.[Br-]` [SND470, (4-(4-(7,8-Dimethoxy-4-oxo-4H-chromen-3-yl)phenyl)butyl)triphenylphosphonium bromide], the “Fold activation of Caspase 3/7” value in test [1] was found to be 3.87 Fold; in test [4], 7.22 Fold; in test [7] it was 7.02 Fold. The IC50 – broadly, the concentration that gives 50% inhibition – worked out at 0.71 µM in test [2]; 0.4 µM in test [3]; 0.022 µM in test [5]; 1.35 µM in test [6]; 0.012 µM in [8]; 2.7 µM in test [9].
